Each block holds one molecule with its values, some of them ahead of it.
Columns and labels:
[1] = target: T1, Prostaglandin D2 receptor (Homo sapiens, UniProt Q13258); assay: In vitro inhibition of cAMP formation evoked by prostaglandin D2 receptor in human platelets; type: functional
T1 sequence (Q13258 whole entry): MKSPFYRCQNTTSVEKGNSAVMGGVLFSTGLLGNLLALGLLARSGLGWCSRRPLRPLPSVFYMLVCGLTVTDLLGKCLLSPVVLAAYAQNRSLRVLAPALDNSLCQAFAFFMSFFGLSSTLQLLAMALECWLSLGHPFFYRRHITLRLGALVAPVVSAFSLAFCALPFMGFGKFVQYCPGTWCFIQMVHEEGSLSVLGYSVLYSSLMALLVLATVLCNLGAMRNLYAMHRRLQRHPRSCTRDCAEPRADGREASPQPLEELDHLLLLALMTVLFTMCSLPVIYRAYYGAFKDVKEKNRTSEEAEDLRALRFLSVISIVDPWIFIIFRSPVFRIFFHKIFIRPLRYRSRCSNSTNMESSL

[2] = target: T1, Prostaglandin D2 receptor; assay: In vitro inhibition of [3H]- PGD-2 radioligand binding to prostaglandin D2 receptor on human platelet membrane
Cavia porcellus [3] = assay: In vivo inhibition of antigen induced increase in intranasal pressure in actively sensitized guinea pig after dose of 10 mg/kg; type: functional; settings: for inhibition in vivo at 10 mg/kg: Cavia porcellus
Cavia porcellus [4] = assay: Inhibition of increase in specific airway resistance by antigen inhalation in conscious guinea pig at a dose of 10 mg/kg administered perorally 1 hr before challenge in asthma model; type: functional; settings: route oral
Cavia porcellus [5] = assay: In vivo inhibition of antigen induced increase in intranasal pressure in actively sensitized guinea pig after an intravenous dose of 1 mg/kg; type: functional

SMILES: O=C(O)CCC/C=C\C[C@@H]1[C@H]2CC[C@H](C2)[C@H]1NS(=O)(=O)c1ccc2c(c1)Cc1ccccc1-2
IC50 [1]: > 1000 nM

SMILES: O=C(O)CCC/C=C\C[C@@H]1[C@H]2CC[C@H](C2)[C@H]1NS(=O)(=O)c1ccc2oc3ccccc3c2c1
inhibition in vivo at 10 mg/kg (Cavia porcellus [3]): 75%

SMILES: CC(C)(C)c1ccc(S(=O)(=O)N[C@@H]2[C@@H]3CC[C@@H](C3)[C@H]2C/C=C\CCCC(=O)O)cc1
IC50 [1]: 720 nM
IC50 [2]: > 10000 nM

SMILES: COc1cc2c(cc1S(=O)(=O)N[C@@H]1[C@@H]3CC[C@@H](C3)[C@H]1C/C=C\CCC(C)(C)C(=O)O)oc1ccccc12
IC50 [1]: 320 nM
IC50 [2]: 57 nM

SMILES: O=C(O)CCC/C=C\C[C@@H]1[C@H]2CC[C@H](C2)[C@H]1NS(=O)(=O)c1ccc(-c2cc3ccccc3[nH]2)cc1
IC50 [1]: 210 nM
IC50 [2]: 190 nM

SMILES: O=C(O)CCC/C=C\C[C@@H]1[C@H]2CC[C@H](C2)[C@H]1NS(=O)(=O)c1ccc(-c2ccccc2)s1
IC50 [1]: 220 nM
IC50 [2]: 580 nM

SMILES: O=C(O)CCC/C=C\C[C@@H]1[C@H]2CC[C@H](C2)[C@H]1NS(=O)(=O)c1ccc2oc3ccc(O)cc3c2c1
IC50 [1]: 250 nM
IC50 [2]: 200 nM

SMILES: O=C(O)CCC/C=C\C[C@@H]1[C@H]2CC[C@H](C2)[C@H]1NS(=O)(=O)c1ccc(CCc2ccccc2)cc1
IC50 [1]: 260 nM
IC50 [2]: 550 nM

SMILES: CC(C)(CC/C=C\C[C@@H]1[C@H]2CC[C@H](C2)[C@H]1NS(=O)(=O)c1ccc2oc3ccccc3c2c1)C(=O)O
IC50 [1]: 320 nM
IC50 [2]: 180 nM

SMILES: O=C(O)CCC/C=C\C[C@@H]1[C@H]2CC[C@H](C2)[C@H]1NS(=O)(=O)c1ccc(-c2ccc(C(F)(F)F)cc2)cc1
IC50 [1]: 350 nM
IC50 [2]: 660 nM

SMILES: O=C(O)CCC/C=C\C[C@@H]1[C@H]2CC[C@H](C2)[C@H]1NS(=O)(=O)c1ccc(Cc2ccccc2)cc1
IC50 [1]: 650 nM
IC50 [2]: 5200 nM

SMILES: O=C(O)CCC/C=C\C[C@@H]1[C@H]2CC[C@H](C2)[C@H]1NS(=O)(=O)c1ccc(-c2nnnn2-c2ccccc2)cc1
IC50 [1]: 380 nM
IC50 [2]: 62 nM

SMILES: COc1ccc2oc3ccc(S(=O)(=O)N[C@@H]4[C@@H]5CC[C@@H](C5)[C@H]4C/C=C\CCCC(=O)O)cc3c2c1
IC50 [1]: 330 nM
IC50 [2]: 34 nM

SMILES: O=C(O)CCC/C=C\C[C@@H]1[C@H]2CC[C@H](C2)[C@H]1NS(=O)(=O)c1ccc(/N=N/c2ccccc2)cc1
IC50 [2]: 25 nM

SMILES: O=C(O)CCCCCC[C@@H]1[C@H]2CC[C@H](C2)[C@H]1NS(=O)(=O)c1ccc2oc3ccccc3c2c1
IC50 [1]: 430 nM
IC50 [2]: 120 nM

SMILES: O=C(O)CCC/C=C\C[C@@H]1[C@H]2CC[C@H](C2)[C@H]1NS(=O)(=O)c1ccc(Oc2ccccc2)cc1
IC50 [1]: 570 nM
IC50 [2]: 680 nM

SMILES: COc1ccc(S(=O)(=O)N[C@@H]2[C@@H]3CC[C@@H](C3)[C@H]2C/C=C\CCCC(=O)O)cc1
IC50 [1]: 390 nM
IC50 [2]: > 10000 nM

SMILES: O=C(O)CCC/C=C\C[C@@H]1[C@H]2CC[C@H](C2)[C@H]1NS(=O)(=O)c1ccccc1Br
IC50 [1]: 340 nM
IC50 [2]: 5300 nM

SMILES: O=C(O)CCC/C=C\C[C@@H]1[C@H]2CC[C@H](C2)[C@H]1NS(=O)(=O)Cc1ccc(-c2ccccc2)cc1
IC50 [1]: > 1000 nM
IC50 [2]: 8600 nM

SMILES: COc1ccc(S(=O)(=O)N[C@@H]2[C@@H]3CC[C@@H](C3)[C@H]2C/C=C\CCCC(=O)O)cc1[N+](=O)[O-]
IC50 [1]: 280 nM
IC50 [2]: 5400 nM

SMILES: O=C(O)CCC/C=C\C[C@@H]1[C@H]2CC[C@H](C2)[C@H]1NS(=O)(=O)c1ccc(C#Cc2ccccc2)cc1
IC50 [1]: 210 nM
IC50 [2]: 8.5 nM

SMILES: O=C(O)CCC/C=C\C[C@@H]1[C@H]2CC[C@H](C2)[C@H]1NS(=O)(=O)c1ccccc1-c1ccccc1
IC50 [2]: 8600 nM

SMILES: O=C(O)CCC/C=C\C[C@@H]1[C@H]2CC[C@H](C2)[C@H]1NS(=O)(=O)c1cccc(-c2ccccc2)c1
IC50 [1]: 280 nM
IC50 [2]: 670 nM

More lines, in order of falling IC50 [1], values ahead:

IC50 [1]: 200 nM
IC50 [2]: 410 nM
SMILES: O=C(O)CCC/C=C\C[C@@H]1[C@H]2CC[C@H](C2)[C@H]1NS(=O)(=O)c1ccc(-c2cccs2)s1

IC50 [1]: 200 nM
IC50 [2]: 450 nM
SMILES: COc1ccc(-c2ccc(S(=O)(=O)N[C@@H]3[C@@H]4CC[C@@H](C4)[C@H]3C/C=C\CCCC(=O)O)cc2)cc1

IC50 [1]: 190 nM
IC50 [2]: 380 nM
SMILES: Cn1c(-c2ccccc2)cc2ccc(S(=O)(=O)N[C@@H]3[C@@H]4CC[C@@H](C4)[C@H]3C/C=C\CCCC(=O)O)cc21

IC50 [1]: 180 nM
IC50 [2]: 200 nM
SMILES: O=C(O)CCC/C=C\C[C@@H]1[C@H]2CC[C@H](C2)[C@H]1NS(=O)(=O)c1ccc(/C=C\c2ccccc2)cc1

IC50 [1]: 180 nM
IC50 [2]: 64 nM
SMILES: O=C(O)CCC/C=C\C[C@@H]1[C@H]2CC[C@H](C2)[C@H]1NS(=O)(=O)c1ccc2sc3ccccc3c2c1
inhibition in vivo at 1 mg/kg (Cavia porcellus [5]): 31%

IC50 [1]: 180 nM
IC50 [2]: 190 nM
SMILES: O=C(O)CCC/C=C\C[C@@H]1[C@H]2CC[C@H](C2)[C@H]1NS(=O)(=O)c1cc2oc3ccccc3c2cc1O

IC50 [1]: 180 nM
IC50 [2]: 100 nM
SMILES: O=C(O)CCC/C=C\C[C@@H]1[C@H]2CC[C@H](C2)[C@H]1NS(=O)(=O)c1ccc(/C=C/c2ccccc2)cc1

IC50 [1]: 170 nM
IC50 [2]: 36 nM
SMILES: CN(C)c1ccc2c(c1)oc1ccc(S(=O)(=O)N[C@@H]3[C@@H]4CC[C@@H](C4)[C@H]3C/C=C\CCCC(=O)O)cc12

IC50 [1]: 160 nM
IC50 [2]: 22 nM
SMILES: O=C(O)CCC/C=C\C[C@@H]1[C@H]2CC[C@H](C2)[C@H]1NS(=O)(=O)c1ccc2c(c1)oc1ccccc12

IC50 [1]: 160 nM
IC50 [2]: 330 nM
SMILES: O=C(O)CCC/C=C\C[C@@H]1[C@H]2CC[C@H](C2)[C@H]1NS(=O)(=O)c1ccc(Nc2ccccc2)cc1

IC50 [1]: 130 nM
IC50 [2]: 5400 nM
SMILES: Cc1cc(C)c(S(=O)(=O)N[C@@H]2[C@@H]3CC[C@@H](C3)[C@H]2C/C=C\CCCC(=O)O)c(C)c1

IC50 [1]: 120 nM
IC50 [2]: 6000 nM
SMILES: O=C(O)CCC/C=C\C[C@@H]1[C@H]2CC[C@H](C2)[C@H]1NS(=O)(=O)c1ccc(NC(=O)c2ccccc2)cc1

IC50 [1]: 100 nM
IC50 [2]: 90 nM
SMILES: O=C(O)CCC/C=C\C[C@@H]1[C@H]2CC[C@H](C2)[C@H]1NS(=O)(=O)c1ccc(/C=C/c2ccccc2)s1

IC50 [1]: 86 nM
IC50 [2]: 1100 nM
SMILES: O=C(O)CCC/C=C\C[C@@H]1[C@H]2CC[C@H](C2)[C@H]1NS(=O)(=O)c1ccc(C(=O)Nc2ccccc2)cc1

IC50 [1]: 71 nM
SMILES: O=C(O)CCC/C=C\C[C@@H]1[C@H]2CC[C@H](C2)[C@H]1NS(=O)(=O)c1ccc2cc(-c3ccccc3)[nH]c2c1

IC50 [1]: 57 nM
IC50 [2]: 550 nM
SMILES: O=C(O)CCC/C=C\C[C@@H]1[C@H]2CC[C@H](C2)[C@H]1NS(=O)(=O)c1ccc2oc3cc([N+](=O)[O-])ccc3c2c1

IC50 [1]: 52 nM
IC50 [2]: 24 nM
SMILES: COc1cc2c(cc1S(=O)(=O)N[C@@H]1[C@@H]3CC[C@@H](C3)[C@H]1C/C=C\CCCC(=O)O)oc1ccccc12
inhibition in vivo at 10 mg/kg (Cavia porcellus [4]): 42%
Inhibition (Cavia porcellus [3]; 10 mg/kg): 82%
inhibition in vivo at 10 mg/kg (Cavia porcellus [3]): 81%

IC50 [1]: 45 nM
IC50 [2]: 15 nM
SMILES: COc1ccc(-c2cc3ccc(S(=O)(=O)N[C@@H]4[C@@H]5CC[C@@H](C5)[C@H]4C/C=C\CCCC(=O)O)cc3[nH]2)cc1
inhibition in vivo at 1 mg/kg (Cavia porcellus [5]): 40%

IC50 [1]: 34 nM
IC50 [2]: 32 nM
SMILES: CCOc1cc2c(cc1S(=O)(=O)N[C@@H]1[C@@H]3CC[C@@H](C3)[C@H]1C/C=C\CCCC(=O)O)oc1ccccc12
inhibition in vivo at 10 mg/kg (Cavia porcellus [3]): 53%

IC50 [1]: 33 nM
IC50 [2]: 960 nM
SMILES: COc1cc2c(cc1S(=O)(=O)N[C@@H]1[C@@H]3CC[C@@H](C3)[C@H]1CC(=O)CCCCC(=O)O)oc1ccccc12

IC50 [1]: 32 nM
IC50 [2]: 42 nM
SMILES: CS(=O)(=O)NC(=O)CCC/C=C\C[C@@H]1[C@H]2CC[C@H](C2)[C@H]1NS(=O)(=O)c1ccc2oc3ccccc3c2c1

IC50 [1]: 25 nM
IC50 [2]: 18 nM
SMILES: O=C(O)CCC/C=C\C[C@@H]1[C@H]2CC[C@H](C2)[C@H]1NS(=O)(=O)c1ccc2cc(-c3ccc(O)cc3)[nH]c2c1
inhibition in vivo at 1 mg/kg (Cavia porcellus [5]): 42%

IC50 [1]: 22 nM
IC50 [2]: 22 nM
SMILES: O=C(O)CCC/C=C\C[C@@H]1[C@H]2CC[C@H](C2)[C@H]1NS(=O)(=O)c1ccc2[nH]c3ccccc3c2c1
inhibition in vivo at 1 mg/kg (Cavia porcellus [5]): -9%

IC50 [1]: 19 nM
IC50 [2]: 680 nM
SMILES: O=C(O)CCCCC(=O)C[C@@H]1[C@H]2CC[C@H](C2)[C@H]1NS(=O)(=O)c1ccc2oc3ccccc3c2c1
